Laboratory results taken from publication PMC5365648, “Pharmacokinetics of the Novel Echinocandin CD101 in Multiple Animal Species” (Antimicrobial Agents and Chemotherapy, 2017).
Entries after “also recorded” stand apart in the source; their conditions may differ. Where two headings read alike, the source gives them in different places. Starred links: 1 amine or outer side, 2 acyl side, 3 side chain; linkers in the order of their positions; H or OH if unused. Positions of bridges follow the written chain, without caps; N, C: chain ends. Non-standard residues stand in square brackets, D forms with d. Residues, ends and D or L forms follow the SMILES beside them. *: point of attachment. Orn(4R-OH,5R-OCH2CH2NMe3+) = C[N+](C)(C)CCO[C@@H](N[*:3])[C@H](O)C[C@H](N[*:1])C(=O)[*:2]; pTerphenylCO(4''-OnC5H11) = CCCCCOc1ccc(-c2ccc(-c3ccc(C(=O)*)cc3)cc2)cc1; hTyr(3S-OH,4S-OH) = N[C@H](C(=O)O)[C@H](O)[C@@H](O)c1ccc(O)cc1; Pro(3S-OH,4S-Me) = C[C@H]1CN[C@H](C(=O)O)[C@H]1O; Hyp = O=C(O)[C@@H]1C[C@@H](O)CN1

Tests used:
[1] = human plasma; ref [9]; cited from earlier work
Text: In the case of brain concentrations, there was little difference across all the collection intervals. Given the relatively low concentrations and small differences across times, measured concentrations may reflect contamination from residual whole blood during the collec ...

[2] = Rat pharmacokinetics, i.v. bolus; assay type: in vivo, Sprague-Dawley rats
Protocol: In one of three rat studies reported here, a single 5-, 15-, or 45-mg/kg dose of CD101 was administered by slow i.v. bolus (∼3 min) to Sprague-Dawley rats (n = 3 to 5/dose). Blood samples (via jugular vein catheter [JVC]) were drawn for plasma processing at 0.083, 0.25, 0.5, 1, 2, 4, 8, 24, 48, 120, 168, and 240 h after dosing. In the second rat study, conducted to assess tissue distribution, a single 5-mg/kg dose of CD101 was administered by slow i.v. bolus (∼3 min) to male Sprague-Dawley rats (n = 3 animals/time point). Blood samples (via cardiac puncture) were collected for plasma processing predose and at 0.083, 0.5, 1, 2, 4, 8, 24, 48, 72, 96, and 120 h postdose. In parallel with blood collection, animals were euthanized, and tissues (liver, lungs, kidneys, heart, spleen, and brain) were excised and frozen prior to analysis. In the third rat study, conducted to assess excretion, a single 5-mg/kg dose of CD101 was administered by slow i.v. bolus (∼3 min) to bile duct-cannulated male Sprague-Dawley rats (n = 3). Bile samples were collected from each animal into prelabeled bile collection tubes predose and at 0 to 8, 8 to 24, 24 to 48, 48 to 72, 72 to 96, and 96 to 120 h postdose; urine samples were collected from each animal at the same time points pre- and postdose.
For each of the pharmacokinetic studies, whole-blood samples (K3EDTA as anticoagulant) were collected and centrifuged within 30 min of collection. The resulting plasma was harvested and stored at −20°C until analysis. Tissue samples were homogenized by a bead-based homogenizer following the addition of deionized water to excised tissue in a 2:1 (vol/wt) ratio and stored at −20°C until analysis. Prior to analysis, plasma or homogenized tissue samples were quenched with acetonitrile (3:1, acetonitrile-plasma or tissue ratio) containing an appropriate internal standard (isotopically labeled d9-CD101 [mouse and rat] or a structural analog [dog, monkey, and chimpanzee]). Plasma and tissue homogenate concentrations (quantified against calibration standards processed the same way) were determined by reverse-phase, gradient liquid chromatography with tandem mass spectrometric detection (LC-MS/MS) using an AB-SCIEX API 3200Q/4000 mass spectrometry system. Calibration standard ranges were the following: 0.400 (lower limit of quantitation, [LLOQ]) to 200 μg/ml (CD101, mouse), 0.040 (LLOQ) to 10 μg/ml (anidulafungin, mouse), 0.002 (LLOQ) to 10 μg/ml (CD101, rat), 0.005 (LLOQ) to 10 μg/ml (anidulafungin, rat), 0.050 (LLOQ) to 10 μg/ml (CD101, dog), 0.020 (LLOQ) to 10 μg/ml (anidulafungin, dog), 0.010 (LLOQ) to 10 μg/ml (CD101, monkey), 0.001 (LLOQ) to 10 μg/ml (anidulafungin, monkey), 0.015 (LLOQ) to 10 μg/ml (CD101, chimpanzee), and 0.015 (LLOQ) to 10 μg/ml (anidulafungin, chimpanzee). When necessary, dilutions with blank matrix were made for samples that quantified above the upper limit of quantitation. The methods used in the analysis were qualified as fit for purpose: calibration standards were matrix matched with the exception that human plasma calibration standards were used to analyze chimpanzee plasma samples due to the rarity of blank chimpanzee plasma, and, for each analytical batch, triplicate calibration standards were included at the beginning, approximately in the middle, and at the end of the batch. Following analysis, quantitation was carried out by a calibration curve comprising the analyte/internal standard area ratio versus concentration. Analytical batch acceptance followed the general guidance that triplicate standards/quality controls be within ±20% for accuracy (percentage of nominal concentration) and ≤20% for precision (percent coefficient of variation).
Pharmacokinetic parameters were calculated by noncompartmental analysis using Phoenix WinNonlin (version 6.3; Pharsight, Mountain View, CA) from either individual or mean (mouse) concentration-time profiles. An unpaired t test was used to compare mean exposures from male and female rats.

[3] = rat, in vivo, iv, 5 mg/kg, female Sprague-Dawley rats, single 5 mg/kg slow i.v. bolus, plasma, LC-MS/MS, noncompartmental, n = 3 to 5/dose
[4] = rat, in vivo, iv, 5 mg/kg, male Sprague-Dawley rats, single 5 mg/kg slow i.v. bolus, plasma, LC-MS/MS, noncompartmental, n = 3 to 5/dose
[5] = rat, in vivo, iv, 15 mg/kg, female Sprague-Dawley rats, single 15 mg/kg slow i.v. bolus, plasma, LC-MS/MS, noncompartmental, n = 3 to 5/dose
[6] = rat, in vivo, iv, 15 mg/kg, male Sprague-Dawley rats, single 15 mg/kg slow i.v. bolus, plasma, LC-MS/MS, noncompartmental, n = 3 to 5/dose
[7] = rat, in vivo, iv, 45 mg/kg, female Sprague-Dawley rats, single 45 mg/kg slow i.v. bolus, plasma, LC-MS/MS, noncompartmental, n = 3 to 5/dose
[8] = rat, in vivo, iv, 45 mg/kg, male Sprague-Dawley rats, single 45 mg/kg slow i.v. bolus, plasma, LC-MS/MS, noncompartmental, n = 3 to 5/dose

In the case of CCCCCOc1ccc(-c2ccc(-c3ccc(C(=O)N[C@H]4C[C@@H](O)[C@@H](OCC[N+](C)(C)C)NC(=O)[C@@H]5[C@@H](O)[C@@H](C)CN5C(=O)[C@H]([C@@H](C)O)NC(=O)[C@H]([C@H](O)[C@@H](O)c5ccc(O)cc5)NC(=O)[C@@H]5C[C@@H](O)CN5C(=O)[C@H]([C@@H](C)O)NC4=O)cc3)cc2)cc1 [CD101] ({pTerphenylCO(4''-OnC5H11)}-[Orn(4R-OH,5R-OCH2CH2NMe3+)]T[Hyp][hTyr(3S-OH,4S-OH)]T[Pro(3S-OH,4S-Me)]; lactam 1-C), the protein bound [1] is listed as 98.7%, the Tmax ([2]; female Sprague-Dawley rats, single 5 mg/kg slow i.v. bolus, plasma, LC-MS/MS, noncompartmental, n = 3 to 5/dose) is listed as 4.98 min and the Tmax ([2]; male Sprague-Dawley rats, single 15 mg/kg slow i.v. bolus, plasma, LC-MS/MS, noncompartmental, n = 3 to 5/dose) is listed as 4.98 min. For the same compound, the Tmax ([2]; male Sprague-Dawley rats, single 45 mg/kg slow i.v. bolus, plasma, LC-MS/MS, noncompartmental, n = 3 to 5/dose) was 4.98 min, the AUC(0-inf) [2, 3] was 188 µg·h/mL and the AUC(0-t) [2, 3] was 185 µg·h/mL. For the same compound, the Cmax [2, 3] was 10500 ng/mL, the half-life [2, 3] was 35.7 h and the clearance ([2]; rat, in vivo, iv, 5 mg/kg, female Sprague-Dawley rats, single 5 mg/kg slow i.v. bolus, plasma, LC-MS/MS, noncompartmental, n = 3 to 5/dose, read-out: CL (clearance)) was 0.444 mL/min/kg. The Vd ([2]; rat, in vivo, iv, 5 mg/kg, female Sprague-Dawley rats, single 5 mg/kg slow i.v. bolus, plasma, LC-MS/MS, noncompartmental, n = 3 to 5/dose, read-out: Vss (volume of distribution at steady state)) was 1.21 L/kg, the AUC(0-inf) [2, 4] was 183 µg·h/mL and the AUC(0-t) [2, 4] was 180 µg·h/mL. The Cmax [2, 4] was 12000 ng/mL, the half-life [2, 4] was 34.9 h and the clearance ([2]; rat, in vivo, iv, 5 mg/kg, male Sprague-Dawley rats, single 5 mg/kg slow i.v. bolus, plasma, LC-MS/MS, noncompartmental, n = 3 to 5/dose, read-out: CL (clearance)) was 0.456 mL/min/kg. The Vd ([2]; rat, in vivo, iv, 5 mg/kg, male Sprague-Dawley rats, single 5 mg/kg slow i.v. bolus, plasma, LC-MS/MS, noncompartmental, n = 3 to 5/dose, read-out: Vss (volume of distribution at steady state)) was 1.16 L/kg, the AUC(0-inf) [2, 5] was 441 µg·h/mL and the AUC(0-t) [2, 5] was 435 µg·h/mL. For the same compound, the Cmax [2, 5] was 27600 ng/mL, the half-life [2, 5] was 34.9 h and the clearance ([2]; rat, in vivo, iv, 15 mg/kg, female Sprague-Dawley rats, single 15 mg/kg slow i.v. bolus, plasma, LC-MS/MS, noncompartmental, n = 3 to 5/dose, read-out: CL (clearance)) was 0.567 mL/min/kg. For the same compound, the Vd ([2]; rat, in vivo, iv, 15 mg/kg, female Sprague-Dawley rats, single 15 mg/kg slow i.v. bolus, plasma, LC-MS/MS, noncompartmental, n = 3 to 5/dose, read-out: Vss (volume of distribution at steady state)) was 1.45 L/kg, the AUC(0-inf) [2, 6] was 580 µg·h/mL and the AUC(0-t) [2, 6] was 562 µg·h/mL. The Cmax [2, 6] was 35900 ng/mL, the half-life [2, 6] was 42.7 h and the clearance ([2]; rat, in vivo, iv, 15 mg/kg, male Sprague-Dawley rats, single 15 mg/kg slow i.v. bolus, plasma, LC-MS/MS, noncompartmental, n = 3 to 5/dose, read-out: CL (clearance)) was 0.431 mL/min/kg. The Vd ([2]; rat, in vivo, iv, 15 mg/kg, male Sprague-Dawley rats, single 15 mg/kg slow i.v. bolus, plasma, LC-MS/MS, noncompartmental, n = 3 to 5/dose, read-out: Vss (volume of distribution at steady state)) was 1.42 L/kg, the AUC(0-inf) [2, 7] was 1510 µg·h/mL and the AUC(0-t) [2, 7] was 1490 µg·h/mL. For the same compound, the Cmax [2, 7] was 115000 ng/mL, the half-life [2, 7] was 39.9 h and the clearance ([2]; rat, in vivo, iv, 45 mg/kg, female Sprague-Dawley rats, single 45 mg/kg slow i.v. bolus, plasma, LC-MS/MS, noncompartmental, n = 3 to 5/dose, read-out: CL (clearance)) was 0.496 mL/min/kg. The Vd ([2]; rat, in vivo, iv, 45 mg/kg, female Sprague-Dawley rats, single 45 mg/kg slow i.v. bolus, plasma, LC-MS/MS, noncompartmental, n = 3 to 5/dose, read-out: Vss (volume of distribution at steady state)) was 1.55 L/kg, the AUC(0-inf) [2, 8] was 1660 µg·h/mL and the AUC(0-t) [2, 8] was 1610 µg·h/mL. For the same compound, the Cmax [2, 8] was 164000 ng/mL, the half-life [2, 8] was 44.5 h and the clearance ([2]; rat, in vivo, iv, 45 mg/kg, male Sprague-Dawley rats, single 45 mg/kg slow i.v. bolus, plasma, LC-MS/MS, noncompartmental, n = 3 to 5/dose, read-out: CL (clearance)) was 0.452 mL/min/kg. The Vd ([2]; rat, in vivo, iv, 45 mg/kg, male Sprague-Dawley rats, single 45 mg/kg slow i.v. bolus, plasma, LC-MS/MS, noncompartmental, n = 3 to 5/dose, read-out: Vss (volume of distribution at steady state)) was 1.57 L/kg, the Vd ([2]; rat, in vivo, iv, rat, intravenous, one value for the species as given in the abstract (doses 5, 15, 45 mg/kg, both sexes in Table 1), read-out: Vss) was 1.39 L/kg and the clearance ([2]; rat, in vivo, iv, rat, intravenous, one value for the species as given in the abstract (doses 5, 15, 45 mg/kg, both sexes in Table 1), read-out: clearance) was 0.47 mL/min/kg. The Tmax ([2]; rat, in vivo, iv, female Sprague-Dawley rats, single 15 mg/kg slow i.v. bolus, plasma, LC-MS/MS, noncompartmental, n = 3 to 5/dose, read-out: Tmax) was 4.98 min, the Tmax ([2]; rat, in vivo, iv, female Sprague-Dawley rats, single 45 mg/kg slow i.v. bolus, plasma, LC-MS/MS, noncompartmental, n = 3 to 5/dose, read-out: Tmax) was 4.98 min and the Tmax ([2]; rat, in vivo, iv, male Sprague-Dawley rats, single 5 mg/kg slow i.v. bolus, plasma, LC-MS/MS, noncompartmental, n = 3 to 5/dose, read-out: Tmax) was 4.98 min. For the same compound, the half-life ([2]; rat, in vivo, iv, one value for the species as given in the abstract (doses 5, 15, 45 mg/kg, both sexes in Table 1)) was 39 h and the “PK differences between males and females” value ([2]; rats (Table 1) or monkeys (data not shown)) was “no sex differences; also recorded: No PK differences between males and females”.
